Columns and labels:
[1] = system: pollakiuria model rats induced by sulprostone; assay: Suppression of increase in urinary frequency of rats induced by sulprostone; type: in vivo, rat; conditions: awake rats
[2] = system: pollakiuria model rats induced by acetic acid; assay: Suppression of increase in urinary frequency in rats induced by acetic acid; type: in vivo, rat; conditions: awake rats; 10 mg/kg orally; dosed 2 days after 1% acetic acid into bladder; frequency within 6 hours
Experimental: (ii) Experiment of Suppression of an Increase in Urinary Frequency in Rats Induced by Acetic Acid
Abdomen of a rat was subjected to a midline incision under anesthetization with pentobarbital (50 mg/kg, i.p.) and bladder was exposed. Urine in the bladder was removed using a syringe equipped with an intraocular injection needle (30 G×¾). After that, 0.5 ml of 1% acetic acid solution was injected into the bladder using a syringe equipped with an intraocular injection needle (30 G×¾) and injury was closed.
With regard to measurement of urination of the animal, the animal was placed in a metabolism cage and urination was recorded with the lapse of time using a urination measuring apparatus (K. K. Neuroscience).
When acetic acid was injected into bladder of rat, urination frequency increased continuously and pollakiuria where each urinated amount decreased was induced. Each of the test drugs was evaluated using the stimulated bladder.
Evaluation of the test drug was conducted in such a manner that the test drug was administered after 2 days from injection of acetic acid into the bladder and suppressing rates for the frequency increased within 6 hours thereafter was compared. Suppressing rate (%) of frequency by each compound was determined by the following formula. […]

Cl.O=C(CCc1ccncc1)NNC(=O)N1Cc2ccccc2Oc2ccc(Cl)cc21 [(2), 8-chlorodibenz[b,f][1.4]oxazepine-10(11H)-carboxylic acid.2-[1-oxo-3-(4-pyridinyl)propyl]hydrazide.monohydrochloride]
Inhibiting Rate (%) for Urinary Frequency, Sulprostone-Induced Pollakiuria Model ([1]; 10 mg/kg subcutaneously, frequency over 3 hours after sulprostone): 38.2 ± 4.6 %

CCN(Cc1cc(Cl)ccc1OCC(C)C)c1ccc(C(=O)NS(=O)(=O)c2c(C)noc2C)nn1 [(3), N-(3,5-dimethylisoxazol-4-ylsulfonyl)6-[N-(5-chloro-2-(isobutyloxy)benzyl)-N-ethylamino]pyridazine-3-carboxamide]
Inhibiting Rate (%) for Urinary Frequency, Sulprostone-Induced Pollakiuria Model ([1]; 3 mg/kg subcutaneously, frequency over 3 hours after sulprostone): 49.2 ± 2.8 %

Cc1cc(Cl)ccc1S(=O)(=O)NC[C@H]1C2CCC(CC2)[C@@H]1/C=C\CCCC(=O)O [(1), 6-[(2S,3S)-3-(4-chloro-2-methylphenylsulfonyl-aminomethyl)bicyclo[2.2.2]octan-2-yl]-5Z-hexenoic acid]
Inhibiting Rate (%) for Urinary Frequency, Sulprostone-Induced Pollakiuria Model ([1]; 10 mg/kg orally, sulprostone 200 μg/kg s.c. 30 minutes later, frequency over 3 hours): 58.0 ± 12.0 %
Inhibiting Rate (%) for Urinary Frequency, Acetic Acid-Induced Pollakiuria Model [2]: 44.3 ± 12.4 %
